Active and inactive are the calls of the source.
How the values were obtained:
[1] = molecular target: T1, Adenosylmethionine-8-amino-7-oxononanoate aminotransferase (Mycobacterium tuberculosis, UniProt P9WQ81); assay: Mycobacterium tuberculosis BioA enzyme inhibitor Measured in Biochemical System Using Plate Reader - 2163-02_Inhibitor_Dose_CherryPick_Activity.; type: functional, Mycobacterium tuberculosis UT205
T1 sequence (P9WQ81 whole entry): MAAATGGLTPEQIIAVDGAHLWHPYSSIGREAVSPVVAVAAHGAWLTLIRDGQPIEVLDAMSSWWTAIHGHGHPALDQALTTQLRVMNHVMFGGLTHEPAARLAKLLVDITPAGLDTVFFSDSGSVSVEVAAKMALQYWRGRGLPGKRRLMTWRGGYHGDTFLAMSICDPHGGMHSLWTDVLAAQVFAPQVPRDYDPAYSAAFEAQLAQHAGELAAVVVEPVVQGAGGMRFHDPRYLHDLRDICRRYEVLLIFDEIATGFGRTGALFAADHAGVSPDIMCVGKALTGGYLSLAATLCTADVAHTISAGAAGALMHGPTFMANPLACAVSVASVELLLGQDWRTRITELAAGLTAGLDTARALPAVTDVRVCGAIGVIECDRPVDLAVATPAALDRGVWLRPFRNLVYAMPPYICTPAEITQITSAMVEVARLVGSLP

[2] = cells
[3] = molecular target: Major prion protein (Homo sapiens, UniProt P04156); type: functional, cell-based
[4] = molecular target: T2, Protein skinhead-1 (Caenorhabditis elegans, UniProt P34707); type: functional
T2 sequence (P34707 whole entry): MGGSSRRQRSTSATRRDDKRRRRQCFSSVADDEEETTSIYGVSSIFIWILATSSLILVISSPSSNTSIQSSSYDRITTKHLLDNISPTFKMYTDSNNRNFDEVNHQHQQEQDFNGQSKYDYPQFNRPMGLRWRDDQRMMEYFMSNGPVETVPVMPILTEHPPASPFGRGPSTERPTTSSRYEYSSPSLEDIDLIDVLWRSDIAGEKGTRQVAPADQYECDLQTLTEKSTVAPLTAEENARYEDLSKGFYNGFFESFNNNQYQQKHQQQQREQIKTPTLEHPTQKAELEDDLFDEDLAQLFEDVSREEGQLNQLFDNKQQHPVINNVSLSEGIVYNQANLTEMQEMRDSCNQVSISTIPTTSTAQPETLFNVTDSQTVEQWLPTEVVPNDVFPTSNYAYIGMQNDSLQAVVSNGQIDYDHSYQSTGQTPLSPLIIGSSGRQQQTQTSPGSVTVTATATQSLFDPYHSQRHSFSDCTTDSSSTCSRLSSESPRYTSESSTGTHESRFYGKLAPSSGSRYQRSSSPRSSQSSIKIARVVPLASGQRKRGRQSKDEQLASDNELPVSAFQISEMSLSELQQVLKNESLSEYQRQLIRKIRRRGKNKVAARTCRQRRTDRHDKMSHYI

[5] = Luminescence Cell-Based Dose Confirmation HTS to Identify Inhibitors of Platelet Dense Granule Release. [Related pubchem assays: 1663 (Primary HTS), 1678 (Summary of Project)]; type: functional
[6] = molecular target: Luciferin 4-monooxygenase (Photinus pyralis, UniProt P08659); assay: inhibition of purified Photinus pyralis luciferase – biochemical, luminescence, dose response (AID 1891)
[7] = molecular target: Prothrombin (Homo sapiens, UniProt P00734); assay: Thrombin 1536 HTS Dose Response Confirmation. [Related pubchem assays: 1046 (Thrombin 1536 HTS; hits were confirmed in this assay)]; type: functional
[8] = molecular target: Genome polyprotein (dengue virus type 2, UniProt P29990); assay: flavivirus cap methylation enzyme inhibition – biochemical, confirmation dose response, primary screen (AID 588689); type: functional
[9] = molecular target: T3, Long-chain-fatty-acid--AMP ligase FadD28 (Mycobacterium tuberculosis, UniProt P9WQ59); assay: Fluorescence polarization aasay to screen for inhibitors that compete for the binding of FadD28 to a bisubstrate Measured in Biochemical System Using Plate Reader - 2147-01_Inhibitor_Dose_CherryPick_Activity.; type: functional, Mycobacterium tuberculosis H37Rv
T3 sequence (P9WQ59 whole entry): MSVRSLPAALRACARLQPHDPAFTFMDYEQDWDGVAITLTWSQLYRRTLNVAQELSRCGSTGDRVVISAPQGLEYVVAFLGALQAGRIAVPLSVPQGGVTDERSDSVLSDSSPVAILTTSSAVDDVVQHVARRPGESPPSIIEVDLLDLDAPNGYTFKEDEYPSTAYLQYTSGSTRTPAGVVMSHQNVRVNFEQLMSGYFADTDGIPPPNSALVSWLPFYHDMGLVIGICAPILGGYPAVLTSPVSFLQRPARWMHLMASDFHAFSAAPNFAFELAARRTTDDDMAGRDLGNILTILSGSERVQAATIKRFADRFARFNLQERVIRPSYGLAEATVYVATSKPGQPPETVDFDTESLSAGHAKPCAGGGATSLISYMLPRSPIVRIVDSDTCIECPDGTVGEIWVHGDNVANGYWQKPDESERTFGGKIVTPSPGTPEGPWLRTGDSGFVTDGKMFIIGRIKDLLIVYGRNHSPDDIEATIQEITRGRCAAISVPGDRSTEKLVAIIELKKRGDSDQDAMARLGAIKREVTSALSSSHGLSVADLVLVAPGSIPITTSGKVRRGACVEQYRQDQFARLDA

[10] = NIH3T3 cell viability loss – ATP luminescence, mouse fibroblasts, counter-screen, dose response (AID 2010); type: functional, cell-based;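 also: cells exposed to compound for about 90 hours before reading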
[11] = Trypanosoma cruzi growth suppression in host cells – NIH3T3 host cells, beta-gal luminescence, confirmation (AID 2044); type: functional, cell-based;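 also: intracellular parasites grown in NIH/3T3 mouse fibroblasts as host cells; luminescent beta-galactosidase reporter signal from transgenic T. cruzi replicating inside host cells; inhibitors lower the luminescence signal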
[12] = molecular target: SUMO-activating enzyme (Homo sapiens, UniProt Q9UBT2); assay: blockers of UBC9-mediated SUMO conjugation – biochemical, AlphaScreen, SUMOylation inhibitor project, confirmation (AID 2018); type: functional
[13] = molecular target: T4, Calpain-2 catalytic subunit (Sus scrofa, UniProt P43367); assay: m-calpain protease blockers, concentration series – biochemical, fluorogenic peptide substrate, dose response (AID 1420); type: functional
T4 sequence (P43367 whole entry): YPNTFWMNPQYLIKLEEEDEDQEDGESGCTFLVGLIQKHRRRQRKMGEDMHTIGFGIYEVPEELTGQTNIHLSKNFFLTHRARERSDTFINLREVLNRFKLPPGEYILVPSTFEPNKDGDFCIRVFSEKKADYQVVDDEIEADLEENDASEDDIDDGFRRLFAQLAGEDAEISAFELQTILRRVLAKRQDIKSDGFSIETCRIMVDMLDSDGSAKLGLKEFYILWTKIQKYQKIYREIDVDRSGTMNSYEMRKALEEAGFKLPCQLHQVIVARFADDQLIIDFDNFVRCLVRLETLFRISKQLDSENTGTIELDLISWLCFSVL

[14] = Vero E6 cell cytotoxicity, dose response, cytotoxicity control for non-replicating M. tuberculosis project, secondary assay (AID 492998); type: functional, VeroE6; settings: Vero C1008
[15] = test system: BJ; assay: BJ-TERT fibroblast viability loss – cell-based, RAS-independent, luminescence, dose response (AID 1933); type: functional; settings: Homo sapiens
[16] = test system: INS1; assay: INS-1E survival protection against cytokine death – cell-based, luminescence, retest, dose response (AID 449756); type: functional; settings: Rattus norvegicus;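 also: cell death triggered by IL-1 beta plus TNF-alpha plus IFN-gamma mixture; protective hits raise ATP signal compared with cytokine alone wells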
[17] = test system: BJ; assay: cells; type: functional, cell-based; settings: Homo sapiens
[18] = cells; type: functional
[19] = cells; type: functional, cell-based
[20] = THP-1 cell cytotoxicity, dose response, cytotoxicity control for non-replicating M. tuberculosis project (AID 489025); type: functional
[21] = cells; type: functional, cell-based; remark: listed apart in the source
[22] = HepG2 cell cytotoxicity, dose response, cytotoxicity control for non-replicating M. tuberculosis project (AID 489018); type: functional; settings: Mycobacterium tuberculosis
[23] = test system: BJ; assay: BJ-TERT-LT-ST fibroblast viability loss – cell-based, RAS-independent, luminescence, dose response (AID 1935); type: functional; settings: Homo sapiens;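 also: BJ fibroblasts immortalized with TERT plus LT and ST oncogenes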
[24] = DRD fibroblast viability loss – cell-based, non-viral oncogenic, luminescence, dose response (AID 1934); type: functional; settings: Homo sapiens

Cc1cc(C)n(-c2ccc(C(=O)Nc3ccc4c(c3)OCO4)cc2)n1
AC50 [1]: 4.31 µM (active)

Cc1nn(C)cc1CN(C)C(=O)c1cc(-c2ccccc2)nc2ccc(Br)cc12
IC50 [2]: 75.1 µM (inactive) | IC50 [3]: 6.12 µM (active)

O=C(NC(=S)NCCO)c1sc2ccccc2c1Cl
IC50 [2]: > 138 µM (inactive) | IC50 [3]: 3.4 µM (active)

Cn1c(-c2ccc(Br)o2)nc2cc(Br)ccc21
IC50 [4]: > 100 µM (inactive)

O=C(Nc1ncc2c(n1)CC(c1ccco1)CC2=O)c1ccco1 (stereo not given)
AC50 [1]: 6.29 µM (active) | EC50 [5]: > 112 µM (not active) | EC50 [6]: > 112 µM (not active)

CCOC(=O)N1CCN(C(=O)CSCC(=O)Nc2nc(-c3ccc(Cl)s3)cs2)CC1
IC50 [7]: 1.95 µM (active)

COc1cc(C(C2C(=O)CC(C)(C)CC2=O)C2C(=O)CC(C)(C)CC2=O)ccc1O
IC50 [8]: 62.3 µM (active)

Cc1ccc(-n2nc3c(=S)[nH]nc(C)c3c2C)cc1
IC50 [3]: 0.143 µM (active)

Cc1ccc(-n2nc3c(S)nnc(C)c3c2C)cc1
IC50 [2]: > 138 µM (inactive)

COC(=O)c1cc(NC(=O)CN(c2ccc3c(c2)OCO3)S(C)(=O)=O)ccc1Cl
IC50 [4]: > 100 µM (inactive)

COc1ccccc1-n1c(C)c(C(=O)O)c2cc(OC)c3ccccc3c21
AC50 [9]: 60.9 µM (active)

COC(=O)c1n[nH]c(NC(=O)C(C)(C)C)n1
IC50 [7]: 1.43 µM (active)

O=C(COC(=O)c1cccc(S(=O)(=O)N2CCCCCC2)c1)Nc1ccccc1
AC50 [9]: > 100 µM (inactive)

COc1ccc(C(=O)Nc2ccc(Cn3ccnc3)cc2)cc1OC
AC50 [1]: 7.74 µM (active)

COC(=O)c1c(NC(=O)CN2CCN(Cc3ccc4c(c3)OCO4)CC2)sc(C)c1C
EC50 [10]: > 60 µM (not active) | IC50 [4]: > 100 µM (inactive) | EC50 [11]: 1.88 µM (active)

Clc1ccc(Cn2nnc(-c3ccccc3)n2)cc1
IC50 [4]: 12.6 µM (active)

O=c1[nH]c(=O)n(Cc2ccccc2)c2c1C(C(F)(F)F)(C(F)(F)F)N=C(c1ccco1)N2
IC50 [7]: 31.5 µM (active)

Cc1ccc(/C=C(\CCC(=O)O)c2nc3ccccc3s2)cc1[N+](=O)[O-]
AC50 [1]: 0.153 µM (active)

CCc1c(C(=O)NCCc2ccc(OC)c(OC)c2)[nH]c(C)c1C(C)=O
AC50 [1]: 3.74 µM (active)

O=C1/C(=C/c2coc3ccc(O)cc3c2=O)SC(=S)N1c1ccccc1
IC50 [12]: 39.4 µM (active)

Cc1cc(NC(=O)CSc2nc3cc(C(=O)NCCCOC(C)C)ccc3c(=O)n2Cc2ccco2)no1
IC50 [12]: 38.3 µM (active) | IC50 [13]: 16.1 µM (not active)

Cc1cc(NC(=O)COc2ccc3ccccc3c2Br)no1
IC50 [2]: 133 µM (inactive) | IC50 [3]: 1.39 µM (active)

Cc1nn(-c2ncc(C(F)(F)F)cc2Cl)c(=O)n1-c1ccccc1
IC50 [4]: > 100 µM (inactive)

N#C/C(=C\c1ccccc1)C(=O)NNS(=O)(=O)c1cccc([N+](=O)[O-])c1
IC50 [8]: 51.8 µM (active)

C=CCOc1ccc(C(c2c(O)nc(SC)nc2O)c2c(O)nc(SC)nc2O)cc1
IC50 [8]: 33.3 µM (active)

O=[N+]([O-])c1cccnc1N/N=C/c1ccccc1O
CC50 [14]: 3.08 µM (active) | EC50 [15]: 9.77 µM (active) | AC50 [16]: 0.691 µM (active) | EC50 [17]: 10.9 µM (active) | IC50 [18]: 3.92 µM (active) | EC50 [19]: > 350 µM (not active) | CC50 [20]: 0.766 µM (active) | EC50 [21]: 6.41 µM (active) | CC50 [22]: 14.4 µM (active) | EC50 [23]: 21.6 µM (active) | EC50 [24]: 8.92 µM (active)

Cc1ccc(NC(C)C(=O)N/N=C/c2ccc([N+](=O)[O-])s2)cc1 (stereo not given)
CC50 [14]: 15.8 µM (active) | IC50 [18]: 7.04 µM (active) | EC50 [10]: > 60 µM (not active) | CC50 [20]: 25.9 µM (active) | EC50 [11]: 0.494 µM (active)

Cc1ccc(OCC(=O)N/N=C\c2c(C)n(C)c3ccccc23)c([N+](=O)[O-])c1
AC50 [9]: 68 µM (active)

Reference: ChEMBL document CHEMBL1201862, “PubChem BioAssay data set” (2004)
